Measured values as given in paper PMC8252724 (2021).

Assays:
[1] = system: c-Myc (Pu22) (DNA, G4) TGAGGGTGGGTAGGGTGGGTAA; assay: 1H NMR; settings: 70 mM KCl, 25 mM KPi; pH 7, 298 K, 10% DMSO-d6, 0.1 mM DNA
[2] = system: FAM-Pu22 (DNA, G4) TGAGGGTGGGTAGGGTGGGTAA; assay: microscale thermophoresis; settings: 150 mM KCl; 10 mM Tris-HCl, pH 7.4
[3] = system: c-Myc (Pu22) (DNA, G4) TGAGGGTGGGTAGGGTGGGTAA; assay: thiazole orange displacement (FID); settings: 140 mM KCl, 20 mM Na cacodylate; pH 7, RT, 10% DMSO; 0.5 μM TO displaced, 0.5 μM DNA
[4] = system: FAM-Pu22 (DNA, G4) TGAGGGTGGGTAGGGTGGGTAA; assay: fluorescence intensity titration of labelled DNA; settings: 150 mM KCl; 10 mM Tris-HCl, pH 7.4, RT, 2-3% DMSO, 50 nM DNA
[5] = system: dsDNA 24bp (FAM-duplex) (DNA, duplex) CGCGAATTCGCGCGCGAATTCGCG; assay: microscale thermophoresis; settings: 150 mM KCl; 10 mM Tris-HCl, pH 7.4
[6] = system: c-Myc (Pu22) (DNA, G4) TGAGGGTGGGTAGGGTGGGTAA; assay: 1H NMR titration; settings: 70 mM KCl, 25 mM KPi; pH 7, 298 K, 10% DMSO-d6, 0.1 mM DNA

Compound	binding [1]	K D MST [2] [µM]	DC50 FID [3]	K D FAM [4] [µM]	Kd [5] [µM]	binding [6]
CN(C)Cc1c[nH]c2ccc(N)cc12	weak	2.21 ± 0.89	3.83 ± 0.11 µM	6.29 ± 0.71	–	–
CN(C)Cc1c[nH]c2ccc([N+](=O)[O-])cc12	–	13.22 ± 0.80	19.11 ± 0.88 µM	15.21 ± 1.93	–	–
Cc1cc2cc(N)ccc2n1C	–	17.18 ± 0.54	14.53 ± 0.61 µM	12.32 ± 0.94	–	–
Cn1ccc2cc(N)ccc21	weak	2.32 ± 0.41	3.71 ± 0.32 µM	6.30 ± 0.63	–	–
NCCNCCNCCNCCNCc1c[nH]c2ncccc12	–	–	16.63 ± 1.93 µM	–	–	–
NCCNCCNCCNCCNCc1ccc2c(c1)OCO2	–	–	18.11 ± 1.69 µM	–	–	–
NCCNCCNCCNCCNCc1n[nH]c2ccccc12	–	–	15.63 ± 1.08 µM	–	–	–
Nc1ccc2c(ccn2CCCN2CCCC2)c1	–	2.86 ± 0.33	6.31 ± 0.43 µM	7.12 ± 0.45	18.0 ± 1.33	–
O=[N+]([O-])c1ccc2[nH]cc(CNCCN3CCCC3)c2c1	yes	5.52 ± 0.61	6.81 ± 0.9 µM	7.53 ± 0.93	–	–
O=[N+]([O-])c1ccc2c(c1)c(CNCCN1CCCC1)cn2CCCN1CCCC1	–	1.30 ± 0.21	3.30 ± 0.86 µM	2.81 ± 0.37	32.3 ± 1.69	yes
O=[N+]([O-])c1ccc2c(ccn2CCCN2CCCC2)c1	yes	1.49 ± 0.12	5.01 ± 0.15 µM	2.43 ± 0.29	38.1 ± 2.39	–
c1cc2c(cc1CNCCN1CCCC1)OCO2	–	–	16.11 ± 1.33 µM	–	–	–
c1ccc2c(c1)ccn2CCCN1CCCC1	–	15.11 ± 0.30	19.12 ± .92 µM	16.87 ± 1.58	–	–
